Structures can show the parent of a compound that is named as a salt.
Experiments:
BMDMs [1] = experiment: Flow cytometry, CellROX and TMRM staining; assay type: cell-based, mouse; settings: LPS 4 h; for mitochondrial membrane potential (MMP), TMRM staining: BMDMs pre-treated, oligomycin 10 μM, CCCP 50 μM, valinomycin 10 nM, MMF 50 or 100 μM
Protocol: All compounds used DMSO as a vehicle except for 4-hydroxy tamoxifen (EtOH), NAC (PBS), and AOAA for tracing experiments (Media). LPS was used at a concentration of 100 ng/ml for indicated timepoints (2, 3, 4, 6, 8, 24, 48 h). FHIN1 (10 or 20 μM), MMF (50 or 100 μM), DMF (25 μM), AOAA (5 mM), oligomycin (10 μM), CCCP (50 μM) NAC (1 mM), and IMT1 (10 μM) pre-treatments were performed for 3 h prior the addition of LPS. Cells were treated with valinomycin (10 nM) 15 mins before LPS stimulation. Anti-CD210 or IgG control (10 μg/ml) antibodies were added to cells 1 h prior to LPS stimulation. Recombinant mouse IL-10 protein (100 ng/ml) was added to cells at the same time as LPS. Cells were treated with IFN-B1 (220 ng/ml) for 3 h. Cells were treated with C-178 (1 μM) 1 h prior to LPS stimulation or transfection with 2′3′-cGAMP (1.5 μg/ml) for 4 hrs to achieve cGAS-STING activation. Cells were treated with ODN 2088 (1 μM) for 1 hr prior to LPS stimulation or transfection with CPG ODN 1826 (1.5 μg/ml) to achieve TLR9 activation. 3 different timepoints of 4-hydroxy tamoxifen (TAM) (600 nM or 2 μM) or EtOH treatment were performed-these are specified in the individual figure legends. For ‘48 h’ treatments EtOH/TAM was added on day 5 of 6 during the BMDM differentiation protocol. On day 6 they were plated with EtOH/TAM (left overnight) and treated the following day. For ‘72 h’ treatments EtOH/TAM was added on day […] of 6 during the BMDM differentiation protocol. On day 6 they were plated with EtOH/TAM (left overnight) and treated the following day. For ‘96 h’ treatments EtOH/TAM was added on day […] of 6 during the BMDM differentiation protocol. On day 6 they were plated with EtOH/TAM and treated 2 days later.
Cells were plated in 12-well plates and treated as desired. CellROX Green (5 μM, Thermo Fisher) or TMRM (20 nM, Thermo Fisher) was added to cells 30 mins prior to end of cell treatments. Cells were washed once in PBS and scraped into 200 μl FACS buffer (2 mM EDTA, 0.5% FCS in PBS). Acquisition of samples was performed on a BD Accuri C6 flow cytometer. The gating strategy used for all flow cytometry experiments consisted of debris exclusion by FSC-A vs SSC-A analysis and subsequent doublet exclusion by FSC-A vs FSC-H analysis. A sample gating strategy is provided in Supplementary FIG. 2. 10,000 cells was acquired per condition. Mean fluorescence intensity (MFI) was calculated for all cells in each condition using FlowJo v10.

BMDMs [2] = experiment: Proteomic analysis of BMDMs; assay type: cell-based, mouse; settings: BMDMs pre-treated vs DMSO, LPS 4 h
Protocol: BMDMs (from 5 independent mice) were plated onto 10-cm dishes and treated as indicated. At the experimental endpoint, cells were washed with PBS on ice and centrifuged at 1500 rpm for 5 mins at 4° C. and frozen at -80° C. Cell pellets were lysed, reduced and alkylated in 50 μl of 6M Gu-HCl, 200 mM Tris-HCl PH 8.5, 10 mM TCEP, 15 mM Chloroacetamide by probe sonication and heating to 95° C. for 5 min. Protein concentration was measured by a Bradford assay and initially digested with LysC (Wako) with an enzyme to substrate ratio of 1/200 for 4 h at 37° C. Subsequently, the samples were diluted tenfold with water and digested with porcine trypsin (Promega) at 37° C. overnight. Samples were acidified to 1% TFA, cleared by centrifugation (16,000 g at RT) and approximately 20 μg of the sample was desalted using a Stage-tip. Eluted peptides were lyophilized, resuspended in 0.1% TFA/water and the peptide concentration was measured by A280 on a nanodrop instrument (Thermo). The sample was diluted to 2 μg/5 μl for subsequent analysis. The tryptic peptides were analysed on a Fusion Lumos mass spectrometer connected to an Ultimate Ultra3000 chromatography system (both Thermo Scientific) incorporating an autosampler. 2 μg of de-salted peptides were loaded onto a 50 cm emitter packed with 1.9 μm ReproSil-Pur 200 C18-AQ (Dr Maisch, Germany) using a RSLC-nano uHPLC systems connected to a Fusion Lumos mass spectrometer (both Thermo, UK). Peptides were separated by a 140 min linear gradient from 5% to 30% acetonitrile, 0.5% acetic acid. […] Raw files were analysed and quantified by searching against the Uniprot Mus Musculus database using DIA-NN 1.8 (https://github.com/[…]). […] Data were expressed as mean±standard error of the mean (SEM) unless stated otherwise. […] The proteomics cut-offs for analysis were a log2FC of 0.5 and a false discovery rate (FDR)<0.05, determined using t statistics. […] Overrepresentation analysis (ORA) of significant changes were assessed using Enrichr^4 and the Bioconductor package clusterProfiler 4.0 in R (version 3.6.1). […]

| SMILES | mitochondrial membrane potential (MMP), TMRM staining (BMDMs [1]) | GDF15 protein (proteomics) (BMDMs [2]) | reactive oxygen species (ROS) production (CellROX MFI) (BMDMs [1]; BMDMs pre-treated 3 h) | SLC25A39 protein (proteomics) (BMDMs [2]) |
| --- | --- | --- | --- | --- |
| COC(=O)/C=C/C(=O)OC [DMF, dimethyl fumarate] | no effect | one of the most significantly increased proteins | – | – |
| CCOC(=O)[C@@]12CCCC=C1N(Cc1ccc(-c3ccccc3)cc1)C(=O)[C@H]2CC(=O)NC [FHIN1, Fumarate hydratase-IN-1] | significantly increased staining | one of the most significantly increased proteins | increased | increased |
